Measured values taken from BindingDB's records for doi:10.1038/304065a0 (Hoechst Pharmaceutical Research Laboratories, 1983).

Biological target: Histamine H2 receptor (Cavia porcellus, UniProt P47747)
Sequence (P47747 whole entry): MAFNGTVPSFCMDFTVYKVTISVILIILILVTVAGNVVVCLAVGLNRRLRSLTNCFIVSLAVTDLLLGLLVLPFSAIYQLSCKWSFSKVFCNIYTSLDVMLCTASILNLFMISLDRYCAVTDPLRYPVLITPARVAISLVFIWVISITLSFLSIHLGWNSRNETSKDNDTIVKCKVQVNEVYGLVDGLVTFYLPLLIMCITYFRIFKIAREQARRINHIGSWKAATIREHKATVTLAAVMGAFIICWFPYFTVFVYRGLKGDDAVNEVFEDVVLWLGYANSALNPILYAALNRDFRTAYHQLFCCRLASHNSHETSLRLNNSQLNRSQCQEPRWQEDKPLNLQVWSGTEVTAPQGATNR

| Compound | Ki [nM] |
| --- | --- |
| CN/C([CH-][N+](=O)[O-])=[NH+]\CCSCc1ccc(CN(C)C)o1 | 390 |
| CNC(=S)NCCCc1cnc[nH]1 | > 10000 |
| Cc1nc[nH]c1CCN [2-(5-methyl-1H-imidazol-4-yl)ethan-1-amine] | > 10000 |

Further lines, results first:

| Ki [nM] | Compound |
| --- | --- |
| 12 | NC(N)=Nc1nc(CSCCC(N)=NS(N)(=O)=O)cs1 |
| 3000 | CNC(=S)NCCCCc1cnc[nH]1 [1-[4-(1H-imidazol-5-yl)butyl]-3-methylthiourea] |
| 63 | Cc1[nH]cnc1CSCCNC(=N)NCCCc1c[nH]cn1 [2-[3-(1H-imidazol-5-yl)propyl]-1-(2-{[(5-methyl-1H-imidazol-4-yl)methyl]sulfanyl}ethyl)guanidine] |
| 510 | C/N=C(\S)NCCSCc1[nH]cnc1C [CAS_34839-70-8] |
| > 10000 | CN(C)CCCSC(=N)N [[3-(carbamimidoylsulfanyl)propyl]dimethylamine] |
